The record followed here is US7691624B2, “Cancer cell detecting devices” (Academia Sinica, priority 2003, dated 2010).

Molecules are shown by their SMILES.

One data set deals with NIH3T3 normal cells. The data set is described as follows: Stained cells spread onto cover slip, fluorescent cells counted. The data set is classed as cell-based. Conditions: 1.5 μM Compound 2, 5 minutes, LED. The procedure: (§1) Further, the role of the ratio of the cells stained by Compound 2/AO in cancer diagnosis was studied. Specifically, CL1-0 cancer cells, NIH3T3 normal cells, and their 1:10 mixture were respectively stained with 0.02 μM AO and 1.5 μM Compound 2 for 5 minutes in eppendorfs. Each sample was then taken from the eppendorf and spread onto a cover slip. Fluorescence emissions were recorded by a color camera upon an LED illumination. […] A statistical histogram of the ratio of the cell stained with Compound 2/AO to the ratio of the CL1-0 cells to the sum of NIH3T3 and CL1-0 cells was plotted. Each spot on the histogram represented an average of 5-10 measurements from a single sample.

A further data set deals with CL1-0 cancer cells. Described as above. The data set is classed as cell-based. As for the experimental part: as §1
The subject of data set [1] is mixture of NIH3T3 normal cells and CL1-0 cancer cells with cell ratio of 10:1. The data set is described as above. The class given is cell-based. Conditions: 1.5 μM Compound 2, 5 minutes, LED. As for the experimental part: as §1
The test system of data set [2] is DNA quadruplex. The data set is described as follows: Absorption analysis of compound/DNA complex. The data set is classed as binding. Conditions: in the presence of a DNA quadruplex. The procedure: (§2) Each oligonucleotide described above was mixed with a solution of 10 mM Tris-HCl (pH 7.5) and 150 mM NaCl and was denatured at 90° C. for 2 min. The mixture was then cooled slowly to room temperature and stored at 4° C. for more than 2 days before use. A test compound was then added to this solution to form a compound/DNA complex. The resultant complex was subjected to absorption analysis using a Hitachi U3200 UV-visible spectrophotometer.
(§3) The absorption spectra were taken for compound 2 and its complex with each oligonucleotide. […] In addition, the molar absorption coefficient decreased by ˜15% in the presence of a DNA duplex and ˜35% in the presence of a DNA quadruplex. 10 These spectra changes indicate that compound 2 binds to duplexes and quadruplexes.

For data set [3], the system named is DNA duplex. The data set is described as follows: Absorption analysis of compound/DNA complex. The class given is binding. The note with it: in the presence of a DNA duplex. The procedure: as §2, §3
Data set [4] is described as follows: Fluorescence analysis in aqueous solution. The class given is physicochemical. The note with it: λex≈430 nm, no DNA. The procedure:
(§4) Compound 2 was mixed with eleven DNAs and subjected to fluorescence analysis at λex≈430 nm, using a Hitachi F4010 spectrofluorimeter with a 2 nm bandwidth in a 1-cm cell. Fluorescence analysis was also carried out for compound 4 in the presence of Hum24. […] Further, the fluorescence peaks for a complex of compound 2 and a DNA duplex and a complex of compound 2 and a DNA quadruplex were at ˜550 nm and ˜575 nm, respectively.

Data set [5] relates to DNA quadruplex. The data set is described as follows: Fluorescence analysis of compound/DNA complex. The data set is classed as binding. As for the experimental part:
as §4

Data set [6] concerns DNA duplex. The data set is described as follows: Fluorescence analysis of compound/DNA complex. The data set is classed as binding. Conditions: complex with a DNA duplex, λex≈430 nm. As for the experimental part:
as §4

Data set [7] relates to AT, LD, GC, G10, LQ1, LQ2, LQ4, Tet12, Oxy12, Hum12, Apt, Oxy28, and Hum24. Briefly: Post-stained polyacrylamide gel electrophoresis. The note with it: gels post-stained with 10 μM compound, 254 nm UV light. The data set is classed as binding. The procedure: Compound 2 and its complexes with DNA quadruplexes were further studied by polyacrylamide gel eletrophoresis (PAGE). More specifically, compound 2/DNA quadruplexes described above were analyzed by PAGE in 20% native gels in 10 mM Tris-HCI and 150 mM NaCl (pH 7.5). Gel electrophoresis was carried out in an electric field of 100 V/cm at 4° C. for 15 hours. DNA concentrations were determined by absorbencies at 260 nm and were adjusted to about 10 μM per unit structure. After photographing with UV shadowing, gels were post-stained in a solution containing 10 μM of compound 2, 10 mM Tris-HCl, and 150 mM NaCl (pH 7.5) at room temperature for 10 seconds. The gels were then rinsed by distilled water and photographed under 254 nm UV light using a digital camera.
Gels were post-stained with compound 2 after electrophoresis of AT, LD, GC, G10, LQ1, LQ2, LQ4, Tet12, Oxy12, Hum12, Apt, Oxy28, and Hum24 was complete. […] In particular, most DNAs migrated in the gel in a single band, but Tet12 and LQ4 migrated in two bands.

The subject of data set [8] is tested normal cells (HaCaT, Detroit-551, IMR-90, BJ-1). The data set is described as follows: Cancer cell diagnosis by wide-field fluorescence microscopy. The class given is cell-based. Conditions: each type of tested normal cells; 0.1 μM, 3-6 hours. As for the experimental part:
A wide-field fluorescence microscopy was custom made for diagnosing cancer cells. The microscopy consists of an Ar^+ laser (Coherent Inc. Santa Clara, Calif.) as the light source, a sensitive cooled charged-coupled device (CCD) camera (DV465-UV, Andor Technology, South Windsor, Conn.) for imaging, and two avalanche photodiodes (APDs) for transient photoluminescence measurement. Excitation and imaging were conducted by an oil immersion microscope objective with a numerical aperture of 1.3. A dichroism mirror (Omega) was used to direct the fluorescence into the CCD camera. A holographic notch filter (Oriel) was used to block the backscattered laser light. Images of 250×250 pixels were recorded at a high speed. The imaged area was 50×50 μm^2 and the spatial resolution was about 2 pixels.
The following cells were tested: CL1-1 human lung cancer cells, H1299 lung cancer cells, hTERT-BJ lung cancer cells, Ca9-22 oral cancer cells, HeLa cervical cancer cells, KJ-1 nasopharyngeal cancer cells, HaCaT keratinocyte cells, Detroit-551 skin normal cells, IMR-90 lung normal cells, and BJ-1 lung fibroblast cells. Specifically, cells were incubated with 0.1 μM of compound 2 in a culture medium for 3-6 hours. The non-fixed cells were washed three times with phosphate-buffered saline and then studied under the wide-field fluorescence microscope.

In a further data set the test system is DNA quadruplexes. Briefly: CD analysis of DNA quadruplexes and their complexes. The class given is binding. Conditions: eight DNA quadruplexes. The text has this:
Eight DNA quadruplexes and their complexes with compound 2 were subjected to CD analysis. CD spectra were averaged 10 scans on a Jasco J-715 spectropolarimeter with a 2 nm bandwidth. The scan speed was 50 nm/min and the step resolution was 0.2 nm.

Where [9] appears, read: 10 mM Tris-HCl pH 7.5, 150 mM NaCl.

Take `C[n+]1ccc(C=Cc2ccc3[nH]c4ccc(C=Cc5cc[n+](C)cc5)cc4c3c2)cc1.[I-].[I-]` [Compound 2, 3,6-bis-(2-(1-methylpyridinium-4-yl)-vinyl)-9H-carbazole diiodide]: the “number of stained cells showing fluorescence” value was 4 with NIH3T3 normal cells; roughly 22 with CL1-0 cancer cells (1.5 μM Compound 2, 5 minutes, cover slip, LED); 7 in data set [1]. Moreover, the “fluorescence brightness in cancer cells versus normal cells” value with CL1-0 cancer cells (1.5 μM, 5 minutes, CL1-0 versus NIH3T3, images) is recorded as “brighter fluorescence of Compound 2 in cancer cells than in normal cells”. For the same molecule, the entries for the “decrease of molar absorption coefficient” value in the data set with DNA quadruplex [2] and with DNA duplex [3] were roughly 35% and roughly 15%, respectively. Also, the absorption peak in the data set on DNA quadruplex [2] (setting [9]) is roughly 460 nm; in the data set on DNA duplex [3] (setting [9]), roughly 450 nm. The “fluorescence in an aqueous solution” value in [4] is “weak”. Moreover, the binding preference entry in the data set with DNA quadruplex [5] (DNA quadruplex versus DNA duplex, fluorescence analysis) was “higher binding preference to a DNA quadruplex than to a DNA duplex”. The “fluorescence peak of complex” value in the data set on DNA quadruplex [5] (complex with a DNA quadruplex, λex≈430 nm) was roughly 575 nm; in the data set with DNA duplex [6], roughly 550 nm. For the same molecule, the “fluorescence bands in post-stained gels” value in [7] is “most DNAs exhibited fluorescence bands”. Besides, the “percentage of cells exhibiting bright fluorescence in the nucleus” value in data set [8] is listed as “less than 20%”. Besides, in the data set on DNA quadruplexes, the “changes in the CD spectra of DNA quadruplexes before and after compound binding” value is “No appreciable changes”.
